Experiments:
Human CD73 = molecular target: T1, Human CD73 (Homo sapiens, UniProt P21589); test: CD73 Enzyme Assay; assay type: biochemical; conditions: 0.25 nM hCD73, 25 μM AMP, kinetic read at 360 nm; read-out: CD73 Enzyme Assay IC50
T1 construct: purchased R&D Systems; host or cells: CHO cells
T1 sequence (P21589 27-549): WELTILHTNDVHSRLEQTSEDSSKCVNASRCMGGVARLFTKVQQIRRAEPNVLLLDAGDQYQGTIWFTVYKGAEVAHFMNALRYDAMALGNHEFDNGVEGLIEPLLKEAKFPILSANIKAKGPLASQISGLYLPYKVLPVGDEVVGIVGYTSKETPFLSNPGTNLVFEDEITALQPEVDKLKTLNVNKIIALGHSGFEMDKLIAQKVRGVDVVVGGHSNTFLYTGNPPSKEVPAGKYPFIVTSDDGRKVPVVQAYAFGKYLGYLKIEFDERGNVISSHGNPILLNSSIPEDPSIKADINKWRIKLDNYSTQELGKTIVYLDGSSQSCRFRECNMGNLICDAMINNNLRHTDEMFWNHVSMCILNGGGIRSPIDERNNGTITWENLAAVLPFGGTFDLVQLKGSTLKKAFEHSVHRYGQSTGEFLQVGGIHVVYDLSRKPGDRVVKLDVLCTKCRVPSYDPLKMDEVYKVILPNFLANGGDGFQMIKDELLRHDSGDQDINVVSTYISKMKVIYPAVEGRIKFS

[1] = molecular target: T2, CD73 on U138 human neuroglioma cells (Homo sapiens, UniProt P21589); test: CD73 Cell-Based Assay; conditions: U138 cells, AMP substrate, 2 hours at 37° C., inorganic phosphate by malachite green
T2 construct: U138 cells were obtained from ATCC and cultured in DMEM with 10% FBS; host or cells: U138 human neuroglioma cells
T2 sequence (P21589 27-549): T1 sequence (P21589 27-549)
Outline: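 Whole U138 cells washed free of phosphate were incubated with 200 μM AMP (mixture concentration before equal-volume addition) plus compound in HEPES-buffered saline, pH 7.4, for 2 h at 37 °C, 5% CO2. Adenosine-forming activity read as inorganic phosphate released into supernatant by malachite green.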

`C[C@H](c1ccccc1)N(C)c1nc(Cl)nc2c1ccn2[C@@H]1O[C@H](COCP(=O)(OCOC(=O)C(C)(C)C)OCOC(=O)C(C)(C)C)[C@@H](O)[C@H]1O` [Compound 133, ((((((2R,3S,4R,5R)-5-(2-chloro-4-(methyl((R)-1-phenylethyl)amino)-7H-pyrrolo[2,3-d]pyrimidin-7-yl)-3,4-dihydroxytetrahydrofuran-2-yl)methoxy)methyl)phosphoryl)bis(oxy))bis(methylene) bis(2,2-dimethylpropanoate)] gave an IC50 (Human CD73) greater than 1000 nM and an IC50 [1] greater than 1000 nM.

With `C[C@@H](Nc1cc(Cl)nc2c1ccn2[C@@H]1O[C@H](COCP(=O)(O)O)[C@@H](O)[C@H]1O)c1ccccc1` [Compound 134, [(2R,3S,4R,5R)-5-[6-chloro-4-[[(1R)-1-phenylethyl]amino]pyrrolo[2,3-b]pyridin-1-yl]-3,4-dihydroxy-tetrahydrofuran-2-yl]methoxymethylphosphonic acid] the IC50 (Human CD73) was less than 10 nM and the IC50 [1] was 10 to 100 nM.

Work on `C[C@@H](Nc1nc(Cl)nc2c1ccn2[C@@H]1O[C@H](COCP(=O)(O)O)[C@@H](O)[C@H]1O)c1ccc(F)cn1` [Compound 135, [(2R,3S,4R,5R)-5-[2-chloro-4-[[(1R)-1-(5-fluoro-2-pyridyl)ethyl]-amino]pyrrolo[2,3-d]-pyrimidin-7-yl]-3,4-dihydroxy-tetrahydro-furan-2-yl]methoxy-methylphosphonic acid] yielded an IC50 (Human CD73) of 100 to 1000 nM and an IC50 [1] of 10 to 100 nM.

For `Cc1ccc([C@@H](C)Nc2nc(Cl)nc3c2ccn3[C@@H]2O[C@H](COCP(=O)(O)O)[C@@H](O)[C@H]2O)cc1` [Compound 136, [(2R,3S,4R,5R)-5-[2-chloro-4-[[(1R)-1-(p-tolyl)ethyl]amino]-pyrrolo[2,3-d]-pyrimidin-7-yl]-3,4-dihydroxy-tetrahydro-furan-2-yl]methoxy-methylphosphonic acid], the IC50 (Human CD73) was less than 10 nM and the IC50 [1] was less than 10 nM.

For `Cc1ccc([C@@H](C)Nc2nc(C#N)nc3c2ccn3[C@@H]2O[C@H](COCP(=O)(O)O)[C@@H](O)[C@H]2O)cc1` [Compound 137, [(2R,3S,4R,5R)-5-[2-cyano-4-[[(1R)-1-(p-tolyl)ethyl]amino]-pyrrolo[2,3-d]-pyrimidin-7-yl]-3,4-dihydroxy-tetrahydro-furan-2-yl]methoxy-methylphosphonic acid], the IC50 (Human CD73) was 10 to 100 nM and the IC50 [1] was less than 10 nM.

`C[C@H](Nc1nc(C#N)nc2c1ccn2[C@@H]1O[C@H](COCP(=O)(O)O)[C@@H](O)[C@H]1O)c1ccc(F)cc1F` [Compound 138, [(2R,3S,4R,5R)-5-[2-cyano-4-[[(1S)-1-(2,4-difluorophenyl)ethyl]-amino]pyrrolo[2,3-d]-pyrimidin-7-yl]-3,4-dihydroxy-tetrahydro-furan-2-yl]methoxy-methylphosphonic acid] showed an IC50 (Human CD73) of less than 10 nM and an IC50 [1] of less than 10 nM.

Work on `C[C@H](Nc1nc(Cl)nc2c1ccn2[C@@H]1O[C@H](COCP(=O)(O)O)[C@@H](O)[C@H]1O)c1ccc(F)cn1` [Compound 139, [(2R,3S,4R,5R)-5-[2-chloro-4-[[(1S)-1-(5-fluoro-2-pyridyl)-ethyl]amino]pyrrolo-[2,3-d]pyrimidin-7-yl]-3,4-dihydroxy-tetrahydrofuran-2-yl]-methoxymethylphos-phonic acid] yielded an IC50 (Human CD73) of less than 10 nM and an IC50 [1] of 10 to 100 nM.

Work on `C[C@H](Nc1nc(Cl)nc2c1ccn2[C@@H]1O[C@H](COCP(=O)(O)O)[C@@H](O)[C@H]1O)c1ccc(Cl)cc1` [Compound 140, [(2R,3S,4R,5R)-5-[2-chloro-4-[[(1S)-1-(4-chlorophenyl)ethyl]-amino]pyrrolo[2,3-d]-pyrimidin-7-yl]-3,4-dihydroxy-tetrahydro-furan-2-yl]methoxy-methylphosphonic acid] yielded an IC50 (Human CD73) of less than 10 nM and an IC50 [1] of less than 10 nM.

For `C[C@H](Nc1nc(C#N)nc2c1ccn2[C@@H]1O[C@H](COCP(=O)(O)O)[C@@H](O)[C@H]1O)c1ccc(C#N)cc1` [Compound 141, [(2R,3S,4R,5R)-5-[2-cyano-4-[[(1S)-1-(4-cyanophenyl)ethyl]-amino]pyrrolo[2,3-d]-pyrimidin-7-yl]-3,4-dihydroxy-tetrahydro-furan-2-yl]methoxy-methylphosphonic acid], the IC50 (Human CD73) was less than 10 nM and the IC50 [1] was less than 10 nM.

With `N#Cc1nc(NC2CCC(F)(F)CC2)c2ccn([C@@H]3O[C@H](COCP(=O)(O)O)[C@@H](O)[C@H]3O)c2n1` [Compound 142, [(2R,3S,4R,5R)-5-[2-cyano-4-[(4,4-difluoro-cyclohexyl)amino]-pyrrolo[2,3-d]-pyrimidin-7-yl]-3,4-dihydroxy-tetrahydro-furan-2-yl]methoxy-methylphosphonic acid] the IC50 (Human CD73) was less than 10 nM and the IC50 [1] was less than 10 nM.

With `N#Cc1nc(N2CCCCC2)c2ccn([C@@H]3O[C@H](COCP(=O)(O)O)[C@@H](O)[C@H]3O)c2n1` [Compound 143, [(2R,3S,4R,5R)-5-[2-cyano-4-(1-piperidyl)-pyrrolo[2,3-d]-pyrimidin-7-yl]-3,4-dihydroxy-tetrahydro-furan-2-yl]methoxy-methylphosphonic acid] the IC50 (Human CD73) was less than 10 nM and the IC50 [1] was 10 to 100 nM.

`C[C@@H](Nc1nc(Cl)nc2c1ccn2[C@@H]1O[C@H](COCP(=O)(O)O)[C@@H](O)[C@H]1O)c1ccc(F)cc1F` [Compound 144, [(2R,3S,4R,5R)-5-[2-chloro-4-[[(1R)-1-(2,4-difluorophenyl)-ethyl]amino]pyrrolo-[2,3-d]pyrimidin-7-yl]-3,4-dihydroxy-tetrahydrofuran-2-yl]-methoxymethylphos-phonic acid] gave an IC50 (Human CD73) of less than 10 nM and an IC50 [1] of less than 10 nM.

`C[C@@H](Nc1nc(C#N)nc2c1ccn2[C@@H]1O[C@H](COCP(=O)(O)O)[C@@H](O)[C@H]1O)c1ccc(F)cn1` [Compound 145, [(2R,3S,4R,5R)-5-[2-cyano-4-[[(1R)-1-(5-fluoro-2-pyridyl)ethyl]-amino]pyrrolo[2,3-d]-pyrimidin-7-yl]-3,4-dihydroxy-tetrahydro-furan-2-yl]methoxy-methylphosphonic acid] was tested, and the IC50 (Human CD73) was 100 to 1000 nM and the IC50 [1] was 10 to 100 nM.

Compound `C[C@H](Nc1nc(C#N)nc2c1ccn2[C@@H]1O[C@H](COCP(=O)(O)O)[C@@H](O)[C@H]1O)c1ccc(F)cn1` [Compound 146] has an IC50 (Human CD73) of 100 to 1000 nM and an IC50 [1] of 10 to 100 nM.

Compound `C[C@H](Nc1nc(C#N)nc2c1ccn2[C@@H]1O[C@H](COCP(=O)(O)O)[C@@H](O)[C@H]1O)c1ccc(C(F)(F)F)cc1` [Compound 147, [(2R,3S,4R,5R)-5-[2-cyano-4-[[(1S)-1-[4-(trifluoromethyl)-phenyl]ethyl]amino]-pyrrolo[2,3-d]-pyrimidin-7-yl]-3,4-dihydroxy-tetrahydro-furan-2-yl]methoxy-methylphosphonic acid] has an IC50 (Human CD73) of 10 to 100 nM and an IC50 [1] of less than 10 nM.

In the case of `C[C@H](Nc1nc(Cl)nc2c1ncn2[C@@H]1O[C@H](CS(=O)(=O)CP(=O)(O)O)[C@@H](O)[C@H]1O)c1ccccc1` [Compound 152, [(2S,3S,4R,5R)-5-[2-chloro-6-[[(1S)-1-phenylethyl]amino]-purin-9-yl]-3,4-dihydroxy-tetrahydro-furan-2-yl]methyl-sulfonylmethylphos-phonic acid], the IC50 (Human CD73) is reported as 10 to 100 nM and the IC50 [1] is reported as 10 to 100 nM.

Work on `C[C@H](Nc1nc(Cl)nc2c1ccn2[C@@H]1O[C@H](CS(=O)(=O)CP(=O)(O)O)[C@@H](O)[C@H]1O)c1ccccc1` [Compound 153, [(2S,3S,4R,5R)-5-[2-chloro-4-[[(1S)-1-phenylethyl]amino]-pyrrolo[2,3-d]-pyrimidin-7-yl]-3,4-dihydroxy-tetrahydro-furan-2-yl]methyl-sulfonylmethylphos-phonic acid] yielded an IC50 (Human CD73) of less than 10 nM and an IC50 [1] of 10 to 100 nM.

Compound `C[C@@H](Nc1nc(Cl)nc2c1ccn2[C@@H]1O[C@H](CS(=O)(=O)CP(=O)(O)O)[C@@H](O)[C@H]1O)c1ccccc1` [Compound 154, [(2S,3S,4R,5R)-5-[2-chloro-4-[[(1R)-1-phenylethyl]amino]-pyrrolo[2,3-d]-pyrimidin-7-yl]-3,4-dihydroxy-tetrahydro-furan-2-yl]methyl-sulfonylmethylphos-phonic acid] has an IC50 (Human CD73) of less than 10 nM and an IC50 [1] of less than 10 nM.

For `O=P(O)(O)CS(=O)(=O)C[C@H]1O[C@@H](n2ccc3c(NC4CCCC4)nc(Cl)nc32)[C@H](O)[C@@H]1O` [Compound 155, (((((2S,3S,4R,5R)-5-(2-chloro-4-(cyclopentylamino)-7H-pyrrolo[2,3-d]pyrimidin-7-yl)-3,4-dihydroxytetrahydrofuran-2-yl)methyl)sulfonyl)methyl)phosphonic acid], the IC50 (Human CD73) was less than 10 nM and the IC50 [1] was less than 10 nM.

`O=P(O)(O)CS(=O)(=O)C[C@H]1O[C@@H](n2ccc3c(N4CC5CCCC5C4)nc(Cl)nc32)[C@H](O)[C@@H]1O` (stereo partly drawn) [Compound 156, [(2S,3S,4R,5R)-5-[4-(3,3a,4,5,6,6a-hexa-hydro-1H-cyclopenta-[c]pyrrol-2-yl)-2-chloro-pyrrolo[2,3-d]-pyrimidin-7-yl]-3,4-dihydroxy-tetrahydro-hydrofuran-2-yl]-methylsulfonylmethyl-phosphonic acid] was tested, and the IC50 (Human CD73) was less than 10 nM and the IC50 [1] was less than 10 nM.
